ChEMBL document CHEMBL3232998, “Spiromastixones A-O, antibacterial chlorodepsidones from a deep-sea-derived Spiromastix sp. fungus” (J Nat Prod, 2014)

Legend:
Staphylococcus aureus [1] = assay: Antibacterial activity against methicillin-sensitive Staphylococcus aureus 15 after 18 hrs by broth microdilution method; assay type: functional, organism-based; details: Staphylococcus aureus, 15, 18 h; read-out: IC50
Klebsiella pneumoniae [2] = assay: Antibacterial activity against extended spectrum beta-lactamase producing Klebsiella pneumoniae 12-8 after 18 hrs by broth microdilution method; assay type: functional, organism-based; details: 12-8, 18 h, read-out: IC50
[3] = tested on: Staphylococcus epidermidis; assay: Antibacterial activity against methicillin-sensitive Staphylococcus epidermidis ATCC 12228 after 18 hrs by broth microdilution method; assay type: functional, organism-based; details: ATCC 12228, 18 h, read-out: IC50
Bacillus subtilis = assay: Antibacterial activity against Bacillus subtilis SCSIO BS01 after 18 hrs by broth microdilution method; assay type: functional; details: SCSIO BS01, 18 h
Klebsiella pneumoniae [4] = assay: Antibacterial activity against extended spectrum beta-lactamase-deficient Klebsiella pneumoniae 12-4 after 18 hrs by broth microdilution method; assay type: functional, organism-based; details: 12-4, 18 h
Staphylococcus aureus [5] = assay: Antibacterial activity against methicillin-sensitive Staphylococcus aureus 12-28 after 18 hrs by broth microdilution method; assay type: functional, organism-based; details: 12-28, 18 h
Staphylococcus aureus [6] = assay: Ratio of levofloxacin IC50 to compound IC50 for methicillin-resistant Staphylococcus aureus 12-33 after 18 hrs by broth microdilution method; assay type: functional
Staphylococcus aureus [7] = assay: Antibacterial activity against methicillin-resistant Staphylococcus aureus ATCC 33591 after 18 hrs by broth microdilution method; assay type: functional, organism-based; details: ATCC 33591, 18 h, read-out: IC50
Escherichia coli [8] = assay: Antibacterial activity against extended spectrum beta-lactamase-deficient Escherichia coli 1515 after 18 hrs by broth microdilution method; assay type: functional, organism-based; details: Escherichia coli, 1515, 18 h
Staphylococcus aureus [9] = assay: Antibacterial activity against methicillin-sensitive Staphylococcus aureus ATCC 29213 after 18 hrs by broth microdilution method; assay type: functional, organism-based; details: ATCC 29213, 18 h, read-out: IC50
Escherichia coli [10] = assay: Antibacterial activity against Escherichia coli ATCC 25922 after 18 hrs by broth microdilution method; assay type: functional; details: ATCC 25922, 18 h
Klebsiella pneumoniae [11] = assay: Antibacterial activity against extended spectrum beta-lactamase-deficient Klebsiella pneumoniae 7 after 18 hrs by broth microdilution method; assay type: functional, organism-based; details: Klebsiella pneumoniae, 7, 18 h; read-out: IC50
Enterococcus faecium [12] = assay: Antibacterial activity against vancomycin-resistant Enterococcus faecium 12-1 after 18 hrs by broth microdilution method; assay type: functional, organism-based; details: 12-1, 18 h, read-out: IC50
Enterococcus faecium [13] = assay: Antibacterial activity against vancomycin-sensitive Enterococcus faecium 12-3 after 18 hrs by broth microdilution method; assay type: functional, organism-based; details: 12-3, 18 h, read-out: IC50
Enterococcus faecium [14] = assay: Antibacterial activity against vancomycin-resistant Enterococcus faecium ATCC 700221 after 18 hrs by broth microdilution method; assay type: functional, organism-based; details: ATCC 700221, 18 h, read-out: IC50
Klebsiella pneumoniae [15] = assay: Antibacterial activity against NDM-1 producing Klebsiella pneumoniae ATCC BAA-2146 after 18 hrs by broth microdilution method; assay type: functional, organism-based; details: ATCC BAA-2146, 18 h, read-out: IC50
Staphylococcus aureus [16] = assay: Antibacterial activity against Staphylococcus aureus ATCC 29213 after 18 hrs by broth microdilution method; assay type: functional; details: ATCC 29213, 18 h
Escherichia coli [17] = assay: Antibacterial activity against extended spectrum beta-lactamase-deficient Escherichia coli ATCC 25922 after 18 hrs by broth microdilution method; assay type: functional, organism-based; details: ATCC 25922, 18 h, read-out: IC50
Klebsiella pneumoniae [18] = assay: Antibacterial activity against extended spectrum beta-lactamase producing Klebsiella pneumoniae ATCC 700603 after 18 hrs by broth microdilution method; assay type: functional, organism-based; details: ATCC 700603, 18 h
Escherichia coli [19] = assay: Antibacterial activity against extended spectrum beta-lactamase producing Escherichia coli 12-15 after 18 hrs by broth microdilution method; assay type: functional, organism-based; details: 12-15, 18 h, read-out: IC50
Enterococcus faecalis [20] = assay: Antibacterial activity against vancomycin-sensitive Enterococcus faecalis 12-5 after 18 hrs by broth microdilution method; assay type: functional, organism-based; details: 12-5, 18 h, read-out: IC50
Enterococcus faecalis [21] = assay: Antibacterial activity against vancomycin-sensitive Enterococcus faecalis ATCC 29212 after 18 hrs by broth microdilution method; assay type: functional, organism-based; details: ATCC 29212, 18 h, read-out: IC50
Enterococcus faecalis [22] = assay: Antibacterial activity against vancomycin-resistant Enterococcus faecalis 09-9 after 18 hrs by broth microdilution method; assay type: functional, organism-based; details: 09-9, 18 h, read-out: IC50
Escherichia coli [23] = assay: Antibacterial activity against extended spectrum beta-lactamase-deficient Escherichia coli 12-14 after 18 hrs by broth microdilution method; assay type: functional, organism-based; details: 12-14, 18 h, read-out: IC50
[24] = tested on: Staphylococcus epidermidis; assay: Antibacterial activity against methicillin-sensitive Staphylococcus epidermidis 12-6 after 18 hrs by broth microdilution method; assay type: functional, organism-based; details: 12-6, 18 h
Staphylococcus aureus [25] = assay: Antibacterial activity against methicillin-resistant Staphylococcus aureus 12-33 after 18 hrs by broth microdilution method; assay type: functional, organism-based; details: 12-33, 18 h, read-out: IC50
Enterococcus faecalis [26] = assay: Antibacterial activity against vancomycin-resistant Enterococcus faecalis ATCC 51299 after 18 hrs by broth microdilution method; assay type: functional, organism-based; details: ATCC 51299, 18 h, read-out: IC50
Bacillus thuringiensis = assay: Antibacterial activity against Bacillus thuringiensis SCSIO BT01 after 18 hrs by broth microdilution method; assay type: functional; details: SCSIO BT01, 18 h
[27] = tested on: Staphylococcus epidermidis; assay: Antibacterial activity against methicillin-resistant Staphylococcus epidermidis 12-8 after 18 hrs by broth microdilution method; assay type: functional, organism-based; details: 12-8, 18 h, read-out: IC50

CCCc1c(Cl)c(OC)c(Cl)c2c1Oc1c(Cl)c(O)c(Cl)c(CCC)c1C(=O)O2
0.125 µg/mL: MIC (Bacillus subtilis) | MIC (Staphylococcus aureus [16])
4 µM: MIC [3] | IC50 (Staphylococcus aureus [5]) | MIC (Staphylococcus aureus [9]) | MIC (Enterococcus faecium [12]) | MIC (Enterococcus faecium [13]) | MIC (Enterococcus faecium [14]) | MIC (Enterococcus faecalis [20]) | MIC (Enterococcus faecalis [21]) | MIC (Enterococcus faecalis [22]) | MIC (Staphylococcus aureus [25]) | MIC (Enterococcus faecalis [26])
2: Ratio IC50 (Staphylococcus aureus [6])
> 128 µg/mL: MIC (Escherichia coli [10])
0.25 µg/mL: MIC (Bacillus thuringiensis)
> 256 µM: MIC (Klebsiella pneumoniae [2]) | IC50 (Klebsiella pneumoniae [4]) | IC50 (Escherichia coli [8]) | MIC (Klebsiella pneumoniae [11]) | MIC (Klebsiella pneumoniae [15]) | MIC (Escherichia coli [17]) | IC50 (Klebsiella pneumoniae [18]) | MIC (Escherichia coli [19]) | MIC (Escherichia coli [23])
2 µM: MIC (Staphylococcus aureus [1]) | MIC (Staphylococcus aureus [7]) | IC50 [24]
1 µM: MIC [27]
